# Patent US10982293B2, “Methods for improving plant resistance to soybean cyst nematode and compositions thereof” (Monsanto Technology LLC, priority 2014, dated 2021)
# Assays:
# Type in all cases: in vivo, Heterodera glycines
# race 2 SCN = assay: Greenhouse study: SCN cysts on roots of soybean grown from treated seed, race 2 SCN challenge; details: seed treatment, 2000-3000 SCN eggs, cysts counted after 28-30 days, mean of 6-8 replications, FIG. 3
# Experimental: Various soybean lines were treated with the compound 3-phenyl-5-(thiophen-2-yl)-1,2,4-oxadiazole following standard industry protocols. The structure of 3-phenyl-5-(thiophen-2-yl)-1,2,4-oxadiazole is:
# (§1) Untreated seed or seed treated only with a colorant were used as standard controls. Single soybean seed were planted in 3″×3″ pots filled with field soil mixed with sand and steam sterilized. Ten days after germination seedlings were inoculated with 2000-3000 SCN eggs isolated from cultures maintained on the appropriate soybean germplasm to maintain designated race. After inoculation, soil temperatures were maintained at 28° C. with 16-hour day-length for 28-30 days. On the last day of the incubation period, individual plants were uprooted. Cysts from each plant were collected by blasting the roots with pressurized water and washing the soil while trapping the released cysts on sieves. The collected cysts from individual plants were transferred to a counting dish. The total number of cysts from individual plants was counted under a dissecting microscope. Data is reported as the number of cysts collected from an individual pot and represent the mean of 6-8 replications.
# All plants were treated with ACCELERON® (Monsanto Company, St. Louis, Mo., USA) to reduce fungal disease.
# SCN [1] = assay: Greenhouse trials: susceptible soybean line challenged with SCN with and without the compound (all plants with Acceleron); details: presence vs absence of the compound, all plants treated with ACCELERON
# Experimental: as §1, with “3''×3''” for “3″×3″”, “replications. […] All plants were treated with […]® (Monsanto Company, St. Louis, Mo., USA) to reduce fungal disease.” for “replications.”
# [2] = tested on: race 1 soybean cyst nematodes; assay: Field tests: yield of treated and untreated soybean lines in race 1 SCN fields; details: for yield, treated vs untreated: race 1 SCN
# Experimental: Prior to planting, seeds were treated with chemistry according to standard industry protocols. Six different untreated and treated lines were planted in eight plots. The six lines were selected based on resistance reaction to race 1 and race 3 SCN. […] The levels of resistance were determined essentially as described by Schmitt, D. P. and Shannon, G., Crop Sci., 32:275-277 (1992), according to Table 4. Soil cores were collected at emergence near the root zone of the plant. Multiple soil samples were taken, combined, and crushed into small evenly-sized particles. A sample aliquot was combined with water allowed to sit, then stirred. The sample was then poured into a funnel and processed in a soil elutriator. The sample was counted, with a final number being given as eggs per 100 cc of soil. Based on the number of eggs per 100 cc of soil, the field was classified as low to high pressure, where about 0 to about 180 eggs per 100 cc of soil was considered to be low pressure, about 180 eggs to about 1100 eggs per 100 cc of soil was considered to be medium pressure, and greater than about 1100 eggs per 100 cc of soil was considered to be high pressure. Lines were planted in four medium and four high pressure fields containing race 1 soybean cyst nematodes. The medium pressure fields contained 536 eggs per 100 cc of soil while the high pressure fields contained 1645 eggs per 100 cc of soil. Yield was determined at harvest. The lines derived from Peking germplasm provided protection against race 1 SCN while the lines derived from PI88788 germplasm provided protection against race 3 SCN.
# SCN [3] = assay: Field trials (43): yield of treated PI88788-derived soybean lines under moderate to high nematode pressure; details: seed treatment 0.50 mg AI/seed with Fungicide + Insecticide (Base 2); adjusted to 13% moisture
# From the text: Eleven different untreated and treated lines were planted in a total of 43 separate field trials with a single variety per location. The eleven lines were selected based on their resistance reactions to race 3 SCN. The eleven lines were developed from PI88788 source germplasm and display either moderate resistance or resistance to race 3 SCN. 3-Phenyl-5-(thiophen-2-yl)-1,2,4-oxadiazole was combined with commercial fungicides and insecticides in a tank slurry mix with colorant, polymer, and water at the recommended rates and allowed to mix thoroughly. Using a Gustafson continuous batch seed coater the seed batch was loaded, the treatment slurry was injected and the mixture was allowed to tumble for 35-40 seconds before being ejected into a paper storage bag. […] Sub-samples (˜ 1 pint of soil) were taken from each composite sample and placed in a plastic bag, with appropriate handling to ensure viability of nematodes, and sent to a lab for nematode quantification. […] Quantitative in-season nematode sampling using root and soil samples was conducted eight weeks after planting for trials. […] Samples were sent to a lab for nematode quantification. […] The data were calculated to represent bushels per acre by taking the grain weight over the square footage of each plot and adjusting to 13% moisture.
structure (smiles),measurement,setting,value
"c1ccc(-c2noc(-c3cccs3)n2)cc1 [3-phenyl-5-(thiophen-2-yl)-1,2,4-oxadiazole]",resistance to race 2 SCN (number of SCN cysts on soybean roots),race 2 SCN,enhances resistance to race 2 SCN
same,SCN cyst counts,SCN [1],lower SCN cyst counts
same,"yield, treated vs untreated","[2]; high pressure field, 1645 eggs per 100 cc soil, Peking-moderately resistant (Line 2) and PI88788-moderately resistant (Line 5), FIG. 6",unexpected statistically higher yield
same,"yield, treated vs untreated","[2]; high pressure field, 1645 eggs per 100 cc soil, Peking-resistant (Line 3), PI88788-sensitive (Line 4), PI88788-resistant (Line 6)",no statistical difference
same,"yield, treated vs untreated","[2]; high pressure field, 1645 eggs per 100 cc soil, Peking-sensitive line (Line 1)",statistically higher yield than untreated
same,yield advantage compared to untreated,"[2]; high pressure field, average of the two moderately resistant lines",5.8 bushel per acre
same,yield in field tests (legend of FIG. 6),"[2]; high race 1 SCN pressure, about 1645 SCN eggs/100 cc soil",increase in yield
same,yield in field tests (legend of FIG. 5),"[2]; low race 1 SCN pressure, about 536 SCN eggs/100 cc soil",increase in yield
same,"yield, treated vs untreated","[2]; medium pressure field, 536 eggs per 100 cc soil, Peking or PI88788 sensitive, moderately resistant and resistant lines, FIG. 5",No statistical difference in yield
same,Average Yield,SCN [3],55.7 BU/A
